# Measurements published in patent publication US9290464B2 (priority 2010, dated 2016).
# Assays:
# [1] = test system: MPTP-induced mouse; experiment: Concentration of dopamine in striatum of MPTP-induced mouse (HPLC); assay type: in vivo, C57BL/6 mice; settings: 1 mg/kg oral once a day, FIG. 4
# Experimental: 7 days after the compounds described above are respectively administered to the three groups, the mice in each group were sacrificed by cervical dislocation and brain tissues were immediately taken out of the mice. Striatum was collected from the brain tissue, 0.5 ml of a HPLC assay diluent (0.1 M HClO4, 0.1 mM EDTA) was added to the striatum, and a tissue homogenate was then prepared using an ultrasonic processor. The homogenate was centrifuged at 12,000 rpm for 15 minutes, and the supernatant was filtered with a nitrocellulose filter (0.2 um, Millipore). For HPLC analysis, HR-80 column (80 mm×4.6 mm, particle size: 3 μm ESA, USA) was used, the flow rate of a mobile phase (0.07 M monobasic sodium phosphate, 1 mM sodium octasulfonic acid, 0.1 uM EDTA, 5% acetonitrile, pH 3.2) was maintained at 0.7 ml/min, and the electrode potential of an electrochemical detector (Coulochem III, ESA, USA) was at E1=−100 mV, E2=350 mV.
# [2] = test system: caspase 3; experiment: Activity of caspase 3/7 (Apo-ONE) in MPP+-treated cells; assay type: cell-based, human; settings: 2 mM MPP+, 24 hours; CBI 1, 5, 10 and 50 nM, rasagiline 50 nM; FIG. 18
# Experimental: SH-SY5Y cells were incubated in a 96-well plate at a concentration of 5×10^5 cells/well under the same conditions as described above, the cells were treated with 2 mM of MPP^+ and CBI (1, 5, 10 and 50 nM) or rasagiline (50 nM), and the resulting cells were incubated for 24 hours. Subsequently, 100 μl of Apo-ONE caspase 3/7 reagent (Promega, G7790) was added thereto and mixed therewith, and the resultant was further incubated for 4 hours. After the incubation was terminated, fluorescence was measured at an excitation wavelength of 495 nm and an emission wavelength of 521 nm by using a fluorescence plate reader (GeminiXPS, Molecular Devices).
# [3] = test system: MAO-B-deficient human neuroblastoma SH-SY5Y cells; experiment: Reactive oxygen species (DCF-DA staining) in MPP+-treated cells; assay type: cell-based; settings: 2 mM MPP+, 50 nM, 24 hours; FIGS. 19 and 20
# Experimental: In this embodiment, MAO-B-deficient human neuroblastoma SH-SY5Y cells (Korean Cell Line Bank) were used. The cells were cultured in a DMEM medium at 37° C. with 5% of CO2 for 24 hours. The cultured cells were divided into three groups, 2 mM of MPP^+ was added to each group, one of the three groups was treated with 50 nM of CBI, one of the other two groups was treated with 50 nM of rasagiline, and the three groups were further incubated with 5% of CO2 at 37° C. for 24 hours. The group with only MPP^+ added thereto was incubated under the same conditions as described above. Subsequently, the cells were stained with 2,7-dichlorofluorescein diacetate (DCF-DA), which is a fluorescence dye capable of detecting reactive oxygen species, and then observed using a confocal microscope (Nikon Co., Japan).
# [4] = test system: MPTP-induced mouse; experiment: Number of neurites and spines per neuron in MPTP-induced mouse (confocal microscopy); assay type: in vivo, C57BL/6 mice; settings: 1 mg/kg oral once a day for 10 days after MPTP
# Experimental: To observe whether or not the number of neurites and spines per neuron in the tissues was increased, a coronal slice with a thickness of 200 um containing striatum or substantia nigra was prepared using a vibratome. Each group of mice was sacrificed, and the brain was taken out of each group and then placed in a cold, highly-concentrated sucrose dissection buffer bubbled with carbogen (5% CO2 and 95% O2) (87 mM NaCl, 2.5 mM KCl, 1.25 mM NaH2PO4, 25 mM NaHCO3, 1 mM CaCl2, 3 mM MgCl2, 10 mM dextrose, and 75 mM sucrose). While the vibratome was performed, a slicing chamber was filled with the uniformly carbogenated sucrose dissection buffer. After the slicing process was terminated, all the slices were washed with PBS, and fixed with 4% paraformaldehyde in a PBS solution. The fixed brain slices were placed on a 1.5% agarose (in PBS) block. Images thereof were obtained using a confocal microscope (ZEISS LSM 510 META) by using Zeiss LSM image browser software (Carl Zeiss Microimaging, Germany, version 4.0 SP2).
compound,measurement,setting,value
"C#CCN[C@@H]1CCc2ccccc21 [rasagiline, R(+)-N-propargyl-1-aminoindan, reference compound]",restoration of the concentration of dopamine in striatum compared with normal mice,[1],about 40%
same,activity of caspase 3,[2],reduced
same,reactive oxygen species,[3],significantly decreased
same,number of neurites,[4]; FIG. 23,did not exhibit statistical significance
same,number of spines,[4]; FIG. 24,an increase in the number of spines was observed
